Data published in patent US12084437B2, “Halo-substituted piperidines as orexin receptor modulators” (AstraZeneca AB, priority 2016, dated 2024).

How the values were obtained:
[1] = target: T1, OX1 (Homo sapiens, UniProt O43613); test: Orexin receptor cell-based functional assay, [Ca2+]i by FLIPR, CHO-OX1 cells; settings: FLIPR calcium, antagonism of EC90 of [OX], read-out: OXI, IC50
T1 construct: expressed in transfected cells; host or cells: CHO (CHO-OX1)
T1 sequence (O43613 1-425): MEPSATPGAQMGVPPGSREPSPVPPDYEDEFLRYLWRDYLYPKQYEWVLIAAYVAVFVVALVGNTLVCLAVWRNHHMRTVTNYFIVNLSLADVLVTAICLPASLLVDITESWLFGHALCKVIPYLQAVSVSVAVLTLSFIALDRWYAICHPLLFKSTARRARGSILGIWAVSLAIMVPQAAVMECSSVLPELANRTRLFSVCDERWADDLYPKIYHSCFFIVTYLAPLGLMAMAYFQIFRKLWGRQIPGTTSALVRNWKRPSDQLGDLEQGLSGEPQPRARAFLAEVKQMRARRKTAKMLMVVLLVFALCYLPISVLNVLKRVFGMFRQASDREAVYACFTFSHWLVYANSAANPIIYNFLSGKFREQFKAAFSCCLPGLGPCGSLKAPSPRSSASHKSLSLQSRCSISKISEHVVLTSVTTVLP

[2] = target: T2, OX2 (Homo sapiens, UniProt O43614); test: Orexin receptor cell-based functional assay, [Ca2+]i by FLIPR, CHO-OX2 cells; settings: FLIPR calcium, antagonism of EC90 of [OX]
T2 construct: expressed in transfected cells; host or cells: CHO (CHO-OX2)
T2 sequence (O43614 1-444): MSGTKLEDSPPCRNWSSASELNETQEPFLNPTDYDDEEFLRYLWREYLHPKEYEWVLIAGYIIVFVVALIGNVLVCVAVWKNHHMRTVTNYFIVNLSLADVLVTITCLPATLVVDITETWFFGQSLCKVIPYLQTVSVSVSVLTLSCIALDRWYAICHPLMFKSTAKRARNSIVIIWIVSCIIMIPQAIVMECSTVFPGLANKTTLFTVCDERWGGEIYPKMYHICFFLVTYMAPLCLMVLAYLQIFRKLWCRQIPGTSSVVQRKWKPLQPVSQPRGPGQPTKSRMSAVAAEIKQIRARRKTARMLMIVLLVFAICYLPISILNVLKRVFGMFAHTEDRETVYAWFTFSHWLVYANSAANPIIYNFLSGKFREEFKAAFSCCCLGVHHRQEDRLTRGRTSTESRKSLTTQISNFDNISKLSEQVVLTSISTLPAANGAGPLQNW
Summary of the method: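 CHO cells expressing human OX1 or OX2 (20,000/well, grown overnight) were loaded with Calcium6 dye plus 2.5 mM probenecid for 2 h at 37 °C, then preincubated 30 min with compound (0.1 nM–10 µM). FLIPR fluorescence (ex 488/em 540 nm) was tracked before and after an EC90 orexin challenge.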

SMILES	IC50 [1] [nM]	IC50 [2] [nM]
C[C@@H]1CC(F)(F)CN(C(=O)c2nn(C)cc2-c2ncc(F)cn2)[C@@H]1CNc1ncc(C(F)(F)F)cc1F [Compound 242, ((2S,3R)-5,5-difluoro-2-(((3-fluoro-5-(trifluoromethyl)pyridin-2-yl)amino)methyl)-3-methylpiperidin-1-yl)(4-(5-fluoropyrimidin-2-yl)-1-methyl-1H-pyrazol-3-yl)methanone]	5	> 5000
COc1ccc(-c2cn(C)nc2C(=O)N2CC(F)(F)C[C@@H](C)[C@H]2CNc2ccc(C(F)(F)F)cn2)cc1 [Compound 177]	6	170
Cc1ccc(-c2sc(C)nc2C(=O)N2CC(F)(F)C[C@@H](C)[C@H]2CNc2ncc(C(F)(F)F)cn2)nc1 [Compound 76]	10	> 5000
C[C@@H]1CC(F)(F)CN(C(=O)c2nn(C)cc2-c2ccccn2)[C@@H]1CNc1cnc(C(F)(F)F)cn1 [Compound 130]	6	> 5000
Cc1nc(C(=O)N2CC(F)(F)C[C@@H](C)[C@H]2CNc2ncc(C(F)(F)F)cn2)c(-c2ccccn2)s1 [Compound 70]	5	> 5000
Cc1ccc(C#CC2CC2)c(C(=O)N2CC(F)(F)C[C@@H](C)[C@H]2CNc2ncc(C(F)(F)F)cn2)n1 [Compound 234, (3-(cyclopropylethynyl)-6-methylpyridin-2-yl)((2S,3R)-5,5-difluoro-3-methyl-2-(((5-(trifluoromethyl)pyrimidin-2-yl)amino)methyl)piperidin-1-yl)methanone]	29	> 5000
C[C@@H]1CC(F)(F)CN(C(=O)c2cc(Cl)ccc2-c2ncccn2)[C@@H]1CNc1ncc(C(F)(F)F)cn1 [Compound 56, (5-chloro-2-(pyrimidin-2-yl)phenyl)((2S,3R)-5,5-difluoro-3-methyl-2-(((5-(trifluoromethyl)pyrimidin-2-yl)amino)methyl)piperidin-1-yl)methanone]	7	> 5000
C[C@@H]1CC(F)(F)CN(C(=O)c2cc(Cl)ccc2-c2nnn(C)n2)[C@@H]1CNc1cnc(C(F)(F)F)cn1 [Compound 161]	9	> 5000
Cc1nc(C(=O)N2CC(F)(F)C[C@@H](C)[C@H]2CNc2ncc(Cl)cn2)c(-c2ncccn2)s1 [Compound 50]	20	> 5000
Cc1noc(-c2ccc(Cl)cc2C(=O)N2CC(F)(F)C[C@@H](C)[C@H]2CNc2ncc(C(F)(F)F)cn2)n1 [Compound 19]	10	> 5000
Cc1nc(C(=O)N2CC(F)(F)C[C@@H](C)[C@H]2CNc2ncc(C(F)(F)F)cn2)c(-c2ccc(F)cc2)s1 [Compound 68, ((2S,3R)-5,5-difluoro-3-methyl-2-(((5-(trifluoromethyl)pyrimidin-2-yl)amino)methyl)piperidin-1-yl)(5-(4-fluorophenyl)-2-methylthiazol-4-yl)methanone]	8	> 5000
C[C@@H]1CC(F)(F)CN(C(=O)c2cnn(C)c2-c2ccccn2)[C@@H]1CNc1ncc(Cl)cn1 [Compound 96]	> 1000	> 5000
C[C@@H]1CC(F)(F)CN(C(=O)c2cc(F)ccc2-c2ncccn2)[C@@H]1CNc1ncc(C(F)(F)F)cn1 [Compound 54]	43	> 5000
C[C@@H]1CC(F)(F)CN(C(=O)c2nn(C)cc2-c2ncc(F)cn2)[C@@H]1CNc1ncc(C(F)(F)F)cn1 [Compound 217, ((2S,3R)-5,5-difluoro-3-methyl-2-(((5-(trifluoromethyl)pyrimidin-2-yl)amino)methyl)piperidin-1-yl)(4-(5-fluoropyrimidin-2-yl)-1-methyl-1H-pyrazol-3-yl)methanone]	4	> 5000
Cc1nc(C(=O)N2CC(F)(F)C[C@@H](C)[C@H]2CNc2ncc(C(F)(F)F)cn2)c(-c2ncccn2)s1 [Compound 49]	6	> 5000
Cc1ccc(-c2sc(C)nc2C(=O)N2CC(F)(F)C[C@@H](C)[C@H]2CNc2ncc(C(F)(F)F)cn2)cc1 [Compound 64]	4	> 5000
CCc1cnc(NC[C@@H]2[C@H](C)CC(F)(F)CN2C(=O)c2nn(C)cc2-c2ccccc2)nc1 [Compound 20]	87	> 5000
Cc1nc(C(=O)N2CC(F)(F)C[C@@H](C)[C@H]2CNc2ncc(C(F)(F)F)cn2)c(-c2ccccc2F)s1 [Compound 66]	1	2080
COc1ccc(-c2cn(C)nc2C(=O)N2CC(F)(F)C[C@@H](C)[C@H]2CNc2ncc(C(F)(F)F)cn2)nc1 [Compound 45]	47	> 5000
Cc1ccc(-c2ncccn2)c(C(=O)N2CC(F)(F)C[C@@H](C)[C@H]2COc2ccc(C(F)(F)F)cn2)n1 [Compound 215, ((2S,3R)-5,5-difluoro-3-methyl-2-(((5-(trifluoromethyl)pyridin-2-yl)oxy)methyl)piperidin-1-yl)(6-methyl-3-(pyrimidin-2-yl)pyridin-2-yl)methanone]	5	> 5000
Cc1cccc(-c2cn(C)nc2C(=O)N2CC(F)(F)C[C@@H](C)[C@H]2CNc2ncc(C(F)(F)F)cn2)c1 [Compound 26]	4	> 5000
Cc1ccc(-c2cn(C)nc2C(=O)N2CC(F)(F)C[C@@H](C)[C@H]2CNc2ncc(C(F)(F)F)cn2)cn1 [Compound 89]	23	> 5000
C[C@@H]1CC(F)(F)CN(C(=O)c2nn(C)cc2-c2ncc(F)cn2)[C@@H]1CN(C)c1ncc(C(F)(F)F)cn1 [Compound 263]	57	> 5000
C[C@@H]1CC(F)(F)CN(C(=O)c2cnn(C)c2-c2ccccn2)[C@@H]1CNc1ncc(C(F)(F)F)cn1 [Compound 95]	> 1000	> 5000
Cc1ccc(-c2nnn(C)n2)c(C(=O)N2CC(F)(F)C[C@@H](C)[C@H]2CNc2ncc(Cl)cn2)c1 [Compound 9]	6	> 5000
Cc1cccc(-c2cn(C)nc2C(=O)N2CC(F)(F)C[C@@H](C)[C@H]2CNc2cnc(C(F)(F)F)cn2)n1 [Compound 132]	7	> 5000
Cc1ccc(-n2nccn2)c(C(=O)N2CC(F)(F)C[C@@H](C)[C@H]2CNc2cnc(C(F)(F)F)cn2)n1 [Compound 153]	27	> 5000
Cc1cccc(-c2sc(C)nc2C(=O)N2CC(F)(F)C[C@@H](C)[C@H]2CNc2ccc(C(F)(F)F)cn2)c1 [Compound 187]	7	3000
Cc1ccc(-c2ncccn2)c(C(=O)N2CC(F)(F)C[C@@H](C)[C@H]2CNc2ncc(C(F)(F)F)cn2)c1 [Compound 55, ((2S,3R)-5,5-difluoro-3-methyl-2-(((5-(trifluoromethyl)pyrimidin-2-yl)amino)methyl)piperidin-1-yl)(5-methyl-2-(pyrimidin-2-yl)phenyl)methanone]	30	> 5000
Cc1cnc(-c2cn(C)nc2C(=O)N2CC(F)(F)C[C@@H](C)[C@H]2CNc2ncc(C(F)(F)F)cn2)nc1 [Compound 219, ((2S,3R)-5,5-difluoro-3-methyl-2-(((5-(trifluoromethyl)pyrimidin-2-yl)amino)methyl)piperidin-1-yl)(1-methyl-4-(5-methylpyrimidin-2-yl)-1H-pyrazol-3-yl)methanone]	120	> 5000
